According to patent US7507727B2, “Substituted quinobenzoxazine analogs and methods of using thereof” (Cylene Pharmaceuticals, Inc., priority 2003, dated 2009):
pIC50: −log10 of the molar value. Entries after “also recorded” stand apart in the source; their conditions may differ.

Experiments:
[1] = molecular target: c-Myc template DNA (c-myc quadruplex); assay: Quadruplex binding / stop assay (Taq polymerase arrest, capillary electrophoresis); conditions: read-out: IC50 value in the stop assay; arrest product/full-length product ratio 1:1; FIG. 2
[2] = test system: native quadruplex structures that regulate different oncogenes; assay: Quadrome footprints; assay type: binding; conditions: FIG. 4
Text: Quadrome Footprints. Compounds may be evaluated for their ability to bind to other native quadruplex structures of biological relevance, including quadruplex control elements that regulate a range of different oncogenes.

HCT-116 xenograft = assay: HCT-116 colorectal cancer xenograft model; assay type: in vivo; conditions: HCT-116; 10, 15 and 20 mg/kg; FIG. 8
Method: Two xenograft models for inoculation were harvested and diluted to a concentration of 50×10^6 cells/ml or 100×10^6 cells/ml. Four to six week old nude mice were injected with 0.1 ml of the cell suspension containing between 5×10^6 and 10×10^6 cells. When tumors are of a suitable size compound dosing is commenced. Tumor sizes are measured throughout the treatment period with calipers and body weights also measured.
CX-3543 was tested against a number of cancer xenograft models to determine the in vivo efficacy. HCT-116 and PC-3 tumor-bearing nu/nu or MiaPaCa tumor-bearing SCID mice were administered reference and testing compounds on schedules indicated in figure legends. Tumor measurements were taken with calipers every other day or twice a week starting from the first day of dosing and body weights were measured at the same time points. Tumor volumes were calculated from the standard formula, W^2×L/2. c-MYC mRNA expression was measured with QPCR from all tumor samples following the final dose. 18S ribosomal RNA was used as a housekeeper and also quantified with QPCR.

p53 (total) = p53 (total) ELISA in HCT-116 cells; assay type: cell-based; conditions: 24 hr, 1-5 uM
Method: The protocol for this assay is described as follows. On Day 1, cells were seeded at 2×10^6 cells/10 cm dish/10 mL medium. On day two, cells were treated as follows: control=0.05% DMSO (5 μl DMSO stock/10 ml medium); 1 μM CX3543 (1 μl Stock (10 mM)/10 ml medium); 2 μM CX3543 (2 μl Stock (10 mM)/10 ml medium); 3 μM CX3543 (3 μl Stock (10 mM)/10 ml medium); 4 μM CX3543 (4 μl Stock (10 mM)/10 ml medium) and 5 μM CX3543 (5 μl Stock (10 mM)/10 ml medium).
On Day 3, cells were harvested and attached and floating cells were collected. Cells were washed twice with PBS, counted and collected at 4×10^6 cells/sample. The cell pellet was frozen at −80° C. until further use. […]
Test Procedure. […] After washing, the plate is inverted and tapped dry on absorbance tissue. […]
Wash wells with 400 μl working wash buffer four times. […] After washing, the plate is inverted and tapped try on absorbance tissue. […] After washing, the plate is inverted and tapped try on absorbance tissue. […] Read the plate at A450 nm by setting chromogen blank (=100 μl TMB+100 μl Stop soln) as blank. Read absorbance within 2 hours of assay completion.

CN1CCCC1CCNC(=O)c1cn2c3c(c(N4CCC(c5cnccn5)C4)c(F)cc3c1=O)Oc1cc3ccccc3cc1-2 (stereo not shown) [CX-3543]
pIC50 [1]: 6.00
selectivity footprint by oncogene [2]: selectively binds to those quadruplexes that are capable of adopting the chair/propeller conformation
tumor growth inhibition (HCT-116 xenograft): inhibits tumor growth; also recorded: significant tumor growth inhibition
population of the protein p53 (total) (p53 (total)): enhanced
